Experiments:
Flavopiridol [1] = compound: T1, CN1CC[C@H](c2c(O)cc(O)c3c(=O)cc(-c4ccccc4Cl)oc23)[C@H](O)C1 [Flavopiridol]
AZD5363 = compound: NC1(C(=O)N[C@@H](CCO)c2ccc(Cl)cc2)CCN(c2nc[nH]c3nccc2-3)CC1 [AZD5363]
Paclitaxel = compound: CC(=O)O[C@H]1C(=O)[C@@]2(C)[C@H]([C@H](OC(=O)c3ccccc3)[C@]3(O)C[C@H](OC(=O)[C@H](O)[C@@H](NC(=O)c4ccccc4)c4ccccc4)C(C)=C1C3(C)C)[C@]1(OC(C)=O)CO[C@@H]1C[C@@H]2O [Paclitaxel]
[2] = compound: CO[C@@H](C)Cn1c(=O)n(C)c2cnc3ccc(-c4cncc(C(C)(C)O)c4)cc3c21
R0-3306 = compound: C1=CC2=C(C=CC(=C2)C=C3C(=O)NC(=NCC4=CC=CS4)S3)N=C1 [R0-3306]
[3] = compound: CCC1=CN=CN=C1N2CCN(CC2)CC3=NC4=C(N3)C=C(C=C4)C(F)(F)F
Neratinib/HKI272 = compound: CCOc1cc2ncc(C#N)c(Nc3ccc(OCc4ccccn4)c(Cl)c3)c2cc1NC(=O)/C=C/CN(C)C [Neratinib/HKI272]
BSJ-03-123 [4] = compound: T2, CC(=O)c1c(C)c2cnc(Nc3ccc(N4CCN(CCOCCOCCOCCNC(=O)COc5cccc6c5C(=O)N(C5CCC(=O)NC5=O)C6=O)CC4)cn3)nc2n(C2CCCC2)c1=O [BSJ-03-123]
Flavopiridol [5] = compound: T1, Flavopiridol; assay: GR value, 72 h; higher = faster growth (1 = untreated, <0 = killing);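 further: breast cancer and non-malignant breast epithelial lines, nine half-log doses, viable cells counted by Hoechst and LIVE/DEAD dye imaging versus time-zero plates and DMSO controls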
[6] = compound: CCN1CCN(Cc2ccc(Nc3ncc(F)c(-c4cc(F)c5nc(C)n(C(C)C)c5c4)n3)nc2)CC1; assay: as above
YKL-5-124 = compound: C=CC(=O)Nc1ccc(C(=O)Nc2[nH]nc3c2CN(C(=O)N[C@H](CN(C)C)c2ccccc2)C3(C)C)cc1 [YKL-5-124]; assay: as above
THZ531 = compound: CN(C)C/C=C/C(=O)Nc1ccc(C(=O)N2CCC[C@@H](Nc3ncc(Cl)c(-c4c[nH]c5ccccc45)n3)C2)cc1 [THZ531]; assay: as above
[7] = compound: CCc1cnn2c(NCc3ccc[n+]([O-])c3)cc(N3CCCC[C@H]3CCO)nc12; assay: as above
LEE011/Ribociclib = compound: CN(C)C(=O)c1cc2cnc(Nc3ccc(N4CCNCC4)cn3)nc2n1C1CCCC1 [LEE011/Ribociclib]; assay: as above
BSJ-03-123 [8] = compound: T2, BSJ-03-123; assay: as above
THZ1 = compound: CN(C)C/C=C/C(=O)Nc1ccc(C(=O)Nc2cccc(Nc3ncc(Cl)c(-c4c[nH]c5ccccc45)n3)c2)cc1 [THZ1]; assay: as above
BVD523 = compound: CC(C)Nc1cc(-c2c[nH]c(C(=O)N[C@H](CO)c3cccc(Cl)c3)c2)c(Cl)cn1 [BVD523]
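Wherever GR50, 72 h is given: breast cancer and non-malignant breast epithelial cell lines, Deep Dye Drop or Dye Drop imaging, nine half-log doses, GR normalized to time-zero plates and DMSO-only controls.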

CAL851
GR50, 72 h (Flavopiridol [1]): 0.17 µM
GR50, 72 h (AZD5363): > 10 µM
GR50, 72 h (Paclitaxel): 0.00273 µM
GR50, 72 h [2]: < 0.001 µM
GR50, 72 h (R0-3306): 6.55 µM
GR50, 72 h [3]: > 10 µM
GR50, 72 h (Neratinib/HKI272): 0.0339 µM
GR50, 72 h (BSJ-03-123 [4]): 0.431 µM
GR value (Flavopiridol [5]; 0.0001 µM): 1.04 GR
GR value (Flavopiridol [5]; 0.0003162 µM): 1.01 GR
GR value (Flavopiridol [5]; 0.001 µM): 0.961 GR
GR value (Flavopiridol [5]; 0.003162 µM): 0.874 GR
GR value (Flavopiridol [5]; 0.01 µM): 0.718 GR
GR value (Flavopiridol [5]; 0.03162 µM): 0.906 GR
GR value (Flavopiridol [5]; 0.1 µM): 0.823 GR
GR value (Flavopiridol [5]; 0.3162 µM): -0.005 GR
GR value (Flavopiridol [5]; 1 µM): -0.159 GR
GR value ([6]; 0.001 µM): 1.09 GR
GR value ([6]; 0.003162 µM): 0.968 GR
GR value ([6]; 0.01 µM): 1.08 GR
GR value ([6]; 0.03162 µM): 1.05 GR
GR value ([6]; 0.1 µM): 1.12 GR
GR value ([6]; 0.3162 µM): 0.914 GR
GR value ([6]; 1 µM): 0.617 GR
GR value ([6]; 3.162 µM): -0.0347 GR
GR value ([6]; 10 µM): -0.233 GR
GR value (YKL-5-124; 0.001 µM): 0.137 GR
GR value (YKL-5-124; 0.003162 µM): -0.128 GR
GR value (YKL-5-124; 0.01 µM): -0.137 GR
GR value (YKL-5-124; 0.03162 µM): -0.128 GR
GR value (YKL-5-124; 0.1 µM): -0.177 GR
GR value (YKL-5-124; 0.3162 µM): -0.275 GR
GR value (YKL-5-124; 1 µM): -0.172 GR
GR value (YKL-5-124; 3.162 µM): -0.25 GR
GR value (YKL-5-124; 10 µM): -0.561 GR
GR value (THZ531; 0.0001 µM): 1.12 GR
GR value (THZ531; 0.0003162 µM): 0.975 GR
GR value (THZ531; 0.001 µM): 0.997 GR
GR value (THZ531; 0.003162 µM): 0.889 GR
GR value (THZ531; 0.01 µM): 0.924 GR
GR value (THZ531; 0.03162 µM): 0.717 GR
GR value (THZ531; 0.1 µM): 0.322 GR
GR value (THZ531; 0.3162 µM): 0.0707 GR
GR value (THZ531; 1 µM): -0.218 GR
GR value ([7]; 0.0001 µM): 0.97 GR
GR value ([7]; 0.0003162 µM): 1.08 GR
GR value ([7]; 0.001 µM): 0.982 GR
GR value ([7]; 0.003162 µM): 0.681 GR
GR value ([7]; 0.01 µM): 0.0301 GR
GR value ([7]; 0.03162 µM): -0.178 GR
GR value ([7]; 0.1 µM): -0.234 GR
GR value ([7]; 0.3162 µM): -0.213 GR
GR value ([7]; 1 µM): -0.239 GR
GR value (LEE011/Ribociclib; 0.001 µM): 1.09 GR
GR value (LEE011/Ribociclib; 0.003162 µM): 0.939 GR
GR value (LEE011/Ribociclib; 0.01 µM): 0.859 GR
GR value (LEE011/Ribociclib; 0.03162 µM): 1.1 GR
GR value (LEE011/Ribociclib; 0.1 µM): 0.931 GR
GR value (LEE011/Ribociclib; 0.3162 µM): 0.775 GR
GR value (LEE011/Ribociclib; 1 µM): 0.874 GR
GR value (LEE011/Ribociclib; 3.162 µM): 1.04 GR
GR value (LEE011/Ribociclib; 10 µM): 1.11 GR
GR value (BSJ-03-123 [8]; 0.001 µM): 1.15 GR
GR value (BSJ-03-123 [8]; 0.003162 µM): 0.948 GR
GR value (BSJ-03-123 [8]; 0.01 µM): 0.849 GR
GR value (BSJ-03-123 [8]; 0.03162 µM): 0.839 GR
GR value (BSJ-03-123 [8]; 0.1 µM): 0.601 GR
GR value (BSJ-03-123 [8]; 0.3162 µM): 0.599 GR
GR value (BSJ-03-123 [8]; 1 µM): 0.447 GR
GR value (BSJ-03-123 [8]; 3.162 µM): 0.209 GR
GR value (BSJ-03-123 [8]; 10 µM): -0.238 GR
GR value (THZ1; 0.0001 µM): 1.01 GR
GR value (THZ1; 0.0003162 µM): 0.917 GR
GR value (THZ1; 0.001 µM): 0.835 GR
GR value (THZ1; 0.003162 µM): 0.727 GR
GR value (THZ1; 0.01 µM): 0.6 GR
GR value (THZ1; 0.03162 µM): 0.145 GR
GR value (THZ1; 0.1 µM): -0.146 GR
GR value (THZ1; 0.3162 µM): -0.225 GR
GR value (THZ1; 1 µM): -0.549 GR

MCF10A (GM)
GR50, 72 h (Flavopiridol [1]): 0.101 µM
GR50, 72 h (AZD5363): > 10 µM
GR50, 72 h [2]: 0.00578 µM
GR50, 72 h (BVD523): 1.51 µM
GR50, 72 h (R0-3306): 6.32 µM
GR50, 72 h (BSJ-03-123 [4]): 2.21 µM
GR value (Flavopiridol [5]; 0.0001 µM): 1 GR
GR value (Flavopiridol [5]; 0.0003162 µM): 1.01 GR
GR value (Flavopiridol [5]; 0.001 µM): 1.01 GR
GR value (Flavopiridol [5]; 0.003162 µM): 0.996 GR
GR value (Flavopiridol [5]; 0.01 µM): 0.962 GR
GR value (Flavopiridol [5]; 0.03162 µM): 0.842 GR
GR value (Flavopiridol [5]; 0.1 µM): 0.557 GR
GR value (Flavopiridol [5]; 0.3162 µM): -0.244 GR
GR value (Flavopiridol [5]; 1 µM): -0.319 GR
GR value (YKL-5-124; 0.001 µM): 0.327 GR
GR value (YKL-5-124; 0.003162 µM): 0.118 GR
GR value (YKL-5-124; 0.01 µM): 0.0291 GR
GR value (YKL-5-124; 0.03162 µM): 0.0039 GR
GR value (YKL-5-124; 0.1 µM): 0.0039 GR
GR value (YKL-5-124; 0.3162 µM): -0.0162 GR
GR value (YKL-5-124; 1 µM): -0.0398 GR
GR value (YKL-5-124; 3.162 µM): -0.0468 GR
GR value (YKL-5-124; 10 µM): -0.141 GR
GR value (THZ531; 0.0001 µM): 1 GR
GR value (THZ531; 0.0003162 µM): 1 GR
GR value (THZ531; 0.001 µM): 0.992 GR
GR value (THZ531; 0.003162 µM): 0.983 GR
GR value (THZ531; 0.01 µM): 0.997 GR
GR value (THZ531; 0.03162 µM): 0.974 GR
GR value (THZ531; 0.1 µM): 0.926 GR
GR value (THZ531; 0.3162 µM): 0.707 GR
GR value (THZ531; 1 µM): -0.276 GR
GR value (LEE011/Ribociclib; 0.001 µM): 0.925 GR
GR value (LEE011/Ribociclib; 0.003162 µM): 0.95 GR
GR value (LEE011/Ribociclib; 0.01 µM): 0.906 GR
GR value (LEE011/Ribociclib; 0.03162 µM): 0.892 GR
GR value (LEE011/Ribociclib; 0.1 µM): 0.859 GR
GR value (LEE011/Ribociclib; 0.3162 µM): 0.823 GR
GR value (LEE011/Ribociclib; 1 µM): 0.808 GR
GR value (LEE011/Ribociclib; 3.162 µM): 0.736 GR
GR value (LEE011/Ribociclib; 10 µM): 0.525 GR
GR value (BSJ-03-123 [8]; 0.001 µM): 0.904 GR
GR value (BSJ-03-123 [8]; 0.003162 µM): 0.952 GR
GR value (BSJ-03-123 [8]; 0.01 µM): 0.879 GR
GR value (BSJ-03-123 [8]; 0.03162 µM): 0.859 GR
GR value (BSJ-03-123 [8]; 0.1 µM): 0.884 GR
GR value (BSJ-03-123 [8]; 0.3162 µM): 0.795 GR
GR value (BSJ-03-123 [8]; 1 µM): 0.658 GR
GR value (BSJ-03-123 [8]; 3.162 µM): 0.549 GR
GR value (BSJ-03-123 [8]; 10 µM): -0.17 GR
GR value (THZ1; 0.0001 µM): 0.997 GR
GR value (THZ1; 0.0003162 µM): 0.998 GR
GR value (THZ1; 0.001 µM): 0.986 GR
GR value (THZ1; 0.003162 µM): 0.993 GR
GR value (THZ1; 0.01 µM): 0.898 GR
GR value (THZ1; 0.03162 µM): 0.539 GR
GR value (THZ1; 0.1 µM): 0.23 GR
GR value (THZ1; 0.3162 µM): 0.0499 GR
GR value (THZ1; 1 µM): -0.285 GR

Source: the supplement of paper PMC9663587
